Source: patent US20220340633A1 (Adepthera LLC, priority 2016, published 2022)
Entries after “also recorded” stand apart in the source; their conditions may differ. Non-standard residues stand in square brackets, D forms with d. Residues, ends and D or L forms follow the SMILES beside them. *: point of attachment. Palmitoyl = CCCCCCCCCCCCCCCC(=O)*; AEEA = NCCOCCOCC(=O)O

Assays:
[1] = target: CLR/RAMP1 receptor (Homo sapiens, UniProt O60894+Q16602); details: for receptor specificity of antagonist: CLR/RAMP1 versus CLR/RAMP2
CLR/RAMP1 receptor, sequence (Q16602 23-461): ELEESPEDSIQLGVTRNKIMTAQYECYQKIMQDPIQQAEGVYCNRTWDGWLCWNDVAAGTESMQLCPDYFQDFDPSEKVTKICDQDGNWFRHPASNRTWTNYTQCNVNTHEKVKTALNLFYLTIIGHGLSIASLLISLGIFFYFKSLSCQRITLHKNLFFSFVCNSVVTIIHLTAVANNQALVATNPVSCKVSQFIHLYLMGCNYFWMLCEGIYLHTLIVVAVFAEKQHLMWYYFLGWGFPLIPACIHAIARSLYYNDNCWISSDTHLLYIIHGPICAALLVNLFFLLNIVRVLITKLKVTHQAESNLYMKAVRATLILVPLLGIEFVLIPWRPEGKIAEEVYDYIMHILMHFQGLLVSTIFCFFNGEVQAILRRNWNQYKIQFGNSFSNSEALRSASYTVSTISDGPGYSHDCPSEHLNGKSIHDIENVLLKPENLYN
CLR/RAMP1 receptor, sequence (O60894 27-148): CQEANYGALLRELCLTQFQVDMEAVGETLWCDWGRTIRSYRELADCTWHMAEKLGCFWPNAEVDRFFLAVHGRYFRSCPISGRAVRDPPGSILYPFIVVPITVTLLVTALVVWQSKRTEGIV
Protocol: (§1) Using a receptor activation assay, the dose-dependent stimulatory response of peptide agonists of the present invention on a CLR/RAMP1 receptor, a CLR/RAMP2, or a CLR/RAMP3 receptor complex was determined. A cell line carrying the recombinant CLR/RAMP1, CLR/RAMP2, or a CLR/RAMP3 receptor was employed in the assay. Peptide agonist activities were tested, in duplicate, at 10 different concentrations, starting with 1.0 μM and serially diluted 3-fold, in DMSO. […] The CLR/RAMP1 cAMP, CLR/RAMP2 arrestin assays, and CLR/RAMP3 cAMP (DiscoveRx, Fremont, Calif.) were used.
(§2) For the analysis of antagonistic activity, the synthetic analogs were pre-incubated with the cells before adding the reference ligand at its EC80.

[2] = tested on: primary human lymphatic endothelia cells (HLEC); assay: HLEC survival in medium with 0.1% FBS, MTS assay; details: 30, 100, and 300 nM, 72 hrs
Protocol: The cells were cultured for 72 hrs, and cell viability was assayed with the MTS assay (Promega).

[3] = target: CLR/RAMP3 receptor (Homo sapiens, UniProt O60896+Q16602); assay: cell-based
CLR/RAMP3 receptor, sequence (Q16602 23-461): as the sequence (Q16602 23-461) above
CLR/RAMP3 receptor, sequence (O60896 24-148): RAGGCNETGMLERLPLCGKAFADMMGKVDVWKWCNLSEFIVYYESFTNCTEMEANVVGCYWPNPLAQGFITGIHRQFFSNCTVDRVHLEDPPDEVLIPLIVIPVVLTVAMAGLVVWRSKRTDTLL
Protocol: as §1, §2

CCCCCCCCCCCCCCCC(=O)N[C@@H](CCCCN)C(=O)N[C@H](C(=O)N[C@@H](CCC(N)=O)C(=O)N[C@@H](CCCCN)C(=O)N[C@@H](CC(C)C)C(=O)N[C@@H](C)C(=O)N[C@@H](Cc1c[nH]cn1)C(=O)N[C@@H](CCC(N)=O)C(=O)N[C@H](C(=O)N[C@@H](Cc1ccc(O)cc1)C(=O)N[C@@H](CCC(N)=O)C(=O)N[C@@H](Cc1ccccc1)C(=O)N[C@H](C(=O)N[C@@H](CC(=O)O)C(=O)N[C@@H](CCCCN)C(=O)N[C@@H](CO)C(=O)N[C@@H](C)C(=O)N1CCC[C@H]1C(=O)N[C@H](C(=O)N[C@@H](CC(=O)O)C(=O)N1CCC[C@H]1C(=O)N[C@@H](CO)C(=O)N[C@@H](CO)C(=O)N1CCC[C@H]1C(=O)N[C@@H](Cc1c[nH]cn1)C(=O)N[C@@H](CO)C(=O)N[C@@H](Cc1ccc(O)cc1)C(N)=O)C(C)C)[C@@H](C)O)[C@@H](C)CC)C(C)C [SEQ ID NO: 125]
receptor specificity of antagonist [1]: pan-specific

CC[C@H](C)[C@H](NC(=O)[C@H](CCC(N)=O)NC(=O)[C@H](Cc1c[nH]cn1)NC(=O)[C@H](C)NC(=O)[C@H](CC(C)C)NC(=O)[C@H](CCCCN)NC(=O)[C@H](CCC(N)=O)NC(=O)[C@@H](NC(=O)[C@@H](NC(C)=O)[C@@H](C)O)C(C)C)C(=O)N[C@@H](Cc1ccc(O)cc1)C(=O)N[C@@H](CCC(N)=O)C(=O)N[C@@H](Cc1ccccc1)C(=O)N[C@H](C(=O)N[C@@H](CC(=O)O)C(=O)N[C@@H](CCCCN)C(=O)N[C@@H](CC(=O)O)C(=O)N[C@@H](CCCCN)C(=O)N[C@@H](CC(=O)O)C(=O)N[C@@H](CC(N)=O)C(=O)N[C@@H](CO)C(=O)N[C@@H](C)C(=O)N1CCC[C@H]1C(=O)N[C@H](C(=O)N[C@@H](CC(=O)O)C(=O)N1CCC[C@H]1C(=O)N[C@@H](CO)C(=O)N[C@@H](CO)C(=O)N1CCC[C@H]1C(=O)N[C@@H](Cc1c[nH]cn1)C(=O)N[C@@H](CO)C(=O)N[C@@H](Cc1ccc(O)cc1)C(N)=O)C(C)C)[C@@H](C)O [SEQ ID NO: 76]
antagonistic activity toward CLR/RAMP1 and/or CLR/RAMP2 receptor signaling (in words) ([1]; statement covers CGRP-stimulated CLR/RAMP1 and ADM-stimulated CLR/RAMP2): mildly improved antagonistic activity

CSCC[C@H](NC(=O)[C@H](CC(C)C)NC(=O)[C@H](CCC(N)=O)NC(=O)[C@H](Cc1c[nH]c2ccccc12)NC(=O)[C@H](CC(C)C)NC(=O)[C@H](CCCNC(=N)N)NC(=O)[C@H](Cc1c[nH]cn1)NC(=O)[C@H](CO)NC(=O)[C@H](CC(C)C)NC(=O)[C@H](CC(N)=O)NC(=O)[C@H](CCC(N)=O)NC(=O)[C@@H](NC(=O)[C@H](CCC(N)=O)NC(=O)[C@@H]1CSSC[C@H](NC(=O)CNC(=O)[C@@H](NC(C)=O)C(C)C)C(=O)N[C@@H](C(C)C)C(=O)N[C@@H](CC(C)C)C(=O)NCC(=O)N[C@@H]([C@@H](C)O)C(=O)N1)C(C)C)C(=O)NCC(=O)N1CCC[C@H]1C(=O)N[C@@H](C)C(=O)NCC(=O)N[C@@H](CCCNC(=N)N)C(=O)N[C@@H](CCC(N)=O)C(=O)N[C@@H](CC(=O)O)C(=O)N[C@@H](CO)C(=O)N[C@@H](C)C(=O)N1CCC[C@H]1C(=O)N[C@H](C(=O)N[C@@H](CC(=O)O)C(=O)N1CCC[C@H]1C(=O)N[C@@H](CO)C(=O)N[C@@H](CO)C(=O)N1CCC[C@H]1C(=O)N[C@@H](Cc1c[nH]cn1)C(=O)N[C@@H](CO)C(=O)N[C@@H](Cc1ccc(O)cc1)C(N)=O)C(C)C [SEQ ID NO: 52, reference compound]
HLEC survival (in words) [2]: minimal effects; also recorded: negligible effects

CCCCCCCCCCCCCCCC(=O)NCCCC[C@H](NC(=O)COCCOCCN)C(=O)N[C@H](C(=O)N[C@@H](CCC(N)=O)C(=O)N[C@@H](CCCCN)C(=O)N[C@@H](CC(C)C)C(=O)N[C@@H](C)C(=O)N[C@@H](Cc1c[nH]cn1)C(=O)N[C@@H](CCC(N)=O)C(=O)N[C@H](C(=O)N[C@@H](Cc1ccc(O)cc1)C(=O)N[C@@H](CCC(N)=O)C(=O)N[C@@H](Cc1ccccc1)C(=O)N[C@H](C(=O)N[C@@H](CC(=O)O)C(=O)N[C@@H](CCCCN)C(=O)N[C@@H](CC(=O)O)C(=O)N[C@@H](CO)C(=O)N[C@@H](C)C(=O)N1CCC[C@H]1C(=O)N[C@H](C(=O)N[C@@H](CC(=O)O)C(=O)N1CCC[C@H]1C(=O)N[C@@H](CO)C(=O)N[C@@H](CO)C(=O)N1CCC[C@H]1C(=O)N[C@@H](Cc1c[nH]cn1)C(=O)N[C@@H](CO)C(=O)N[C@@H](Cc1ccc(O)cc1)C(N)=O)C(C)C)[C@@H](C)O)[C@@H](C)CC)C(C)C [SEQ ID NO: 112] (H-[AEEA]K(Palmitoyl)VQKLAHQIYQFTDKDSAPVDPSSPHSY-NH2)
IC50 [3]: 0.8 to 9.2 nM

CCCCCCCCCCCCCCCC(=O)N[C@@H](CCCCN)C(=O)N[C@H](C(=O)N[C@@H](CCC(N)=O)C(=O)N[C@@H](CCCCN)C(=O)N[C@@H](CC(C)C)C(=O)N[C@@H](C)C(=O)N[C@@H](Cc1c[nH]cn1)C(=O)N[C@@H](CCC(N)=O)C(=O)N[C@H](C(=O)N[C@@H](CO)C(=O)N[C@@H](C)C(=O)N1CCC[C@H]1C(=O)N[C@H](C(=O)N[C@@H](CC(=O)O)C(=O)N1CCC[C@H]1C(=O)N[C@@H](CO)C(=O)N[C@@H](CO)C(=O)N1CCC[C@H]1C(=O)N[C@@H](Cc1c[nH]cn1)C(=O)N[C@@H](CO)C(=O)N[C@@H](Cc1ccc(O)cc1)C(N)=O)C(C)C)[C@@H](C)CC)C(C)C [SEQ ID NO: 123]
IC50 [3]: 0.8 to 9.2 nM

CCCCCCCCCCCCCCCC(=O)N[C@@H](CCCCN)C(=O)N[C@H](C(=O)N[C@@H](CCCCN)C(=O)N[C@@H](CCCCN)C(=O)N[C@H](C(=O)N[C@@H](CC(C)C)C(=O)N[C@@H](CCCNC(=N)N)C(=O)N[C@H](C(=O)NCC(=O)N[C@H]1CSSC[C@@H](C(=O)N[C@H](C(=O)N[C@H](C(=O)N[C@@H](CCC(N)=O)C(=O)N[C@@H](CCCCN)C(=O)N[C@@H](CC(C)C)C(=O)N[C@@H](C)C(=O)N[C@@H](Cc2c[nH]cn2)C(=O)N[C@@H](CCC(N)=O)C(=O)N[C@H](C(=O)N[C@@H](Cc2ccc(O)cc2)C(=O)N[C@@H](CCC(N)=O)C(=O)N[C@@H](Cc2ccccc2)C(=O)N[C@H](C(=O)N[C@@H](CC(=O)O)C(=O)N[C@@H](CCCCN)C(=O)N[C@@H](CC(=O)O)C(=O)N[C@@H](CCCCN)C(=O)N[C@@H](CC(=O)O)C(=O)N[C@@H](CC(N)=O)C(=O)N[C@H](C(=O)N[C@@H](C)C(=O)N2CCC[C@H]2C(=O)N[C@H](C(=O)N[C@@H](CC(=O)O)C(=O)N2CCC[C@H]2C(=O)N[C@@H](CO)C(=O)N[C@@H](CO)C(=O)N2CCC[C@H]2C(=O)N[C@@H](Cc2c[nH]cn2)C(=O)N[C@@H](CO)C(=O)N[C@@H](Cc2ccc(O)cc2)C(N)=O)C(C)C)C(C)C)[C@@H](C)O)[C@@H](C)CC)C(C)C)[C@@H](C)O)NC(=O)[C@H]([C@@H](C)O)NC(=O)CNC(=O)[C@H](Cc2ccccc2)NC(=O)[C@H](CCCNC(=N)N)NC1=O)[C@@H](C)O)[C@@H](C)O)[C@@H](C)O [SEQ ID NO: 40]
HLEC survival (in words) [2]: dose-dependently stimulated; also recorded: significantly promote

CCCCCCCCCCCCCCCC(=O)N[C@@H](CCCCN)C(=O)N[C@H](C(=O)N[C@@H](CCC(N)=O)C(=O)N[C@@H](CC(N)=O)C(=O)N[C@@H](CC(C)C)C(=O)N[C@@H](CO)C(=O)N[C@@H](Cc1c[nH]cn1)C(=O)N[C@@H](CCCNC(=N)N)C(=O)N[C@@H](CC(C)C)C(=O)N[C@@H](Cc1c[nH]c2ccccc12)C(=O)N[C@@H](CCC(N)=O)C(=O)N[C@@H](CC(C)C)C(=O)N[C@@H](CCSC)C(=O)NCC(=O)N1CCC[C@H]1C(=O)N[C@@H](C)C(=O)NCC(=O)N[C@@H](CO)C(=O)N[C@@H](C)C(=O)N1CCC[C@H]1C(=O)N[C@H](C(=O)N[C@@H](CC(=O)O)C(=O)N1CCC[C@H]1C(=O)N[C@@H](CO)C(=O)N[C@@H](CO)C(=O)N1CCC[C@H]1C(=O)N[C@@H](Cc1c[nH]cn1)C(=O)N[C@@H](CO)C(=O)N[C@@H](Cc1ccc(O)cc1)C(N)=O)C(C)C)C(C)C [SEQ ID NO: 120]
receptor specificity of antagonist [1]: CLR/RAMP1-specific

CCCCCCCCCCCCCCCC(=O)N[C@@H](CCCCN)C(=O)NCC(=O)N[C@H]1CSSC[C@@H](C(=O)N[C@H](C(=O)N[C@H](C(=O)N[C@@H](CCC(N)=O)C(=O)N[C@@H](CCCCN)C(=O)N[C@@H](CC(C)C)C(=O)N[C@@H](C)C(=O)N[C@@H](Cc2c[nH]cn2)C(=O)N[C@@H](CCC(N)=O)C(=O)N[C@H](C(=O)N[C@@H](Cc2ccc(O)cc2)C(=O)N[C@@H](CCC(N)=O)C(=O)N[C@@H](Cc2ccccc2)C(=O)N[C@H](C(=O)N[C@@H](CC(=O)O)C(=O)N[C@@H](CCCCN)C(=O)N[C@@H](CC(=O)O)C(=O)N[C@@H](CCCCN)C(=O)N[C@@H](CC(=O)O)C(=O)N[C@@H](CC(N)=O)C(=O)N[C@@H](CO)C(=O)N[C@@H](C)C(=O)N2CCC[C@H]2C(=O)N[C@H](C(=O)N[C@@H](CC(=O)O)C(=O)N2CCC[C@H]2C(=O)N[C@@H](CO)C(=O)N[C@@H](CO)C(=O)N2CCC[C@H]2C(=O)N[C@@H](Cc2c[nH]cn2)C(=O)N[C@@H](CO)C(=O)N[C@@H](Cc2ccc(O)cc2)C(N)=O)C(C)C)[C@@H](C)O)[C@@H](C)CC)C(C)C)[C@@H](C)O)NC(=O)[C@H]([C@@H](C)O)NC(=O)CNC(=O)[C@H](Cc2ccccc2)NC(=O)[C@H](CCCNC(=N)N)NC1=O [SEQ ID NO: 30]
HLEC survival (in words) [2]: dose-dependently stimulated; also recorded: significantly promote

CC[C@H](C)[C@H](NC(=O)[C@H](CCC(N)=O)NC(=O)[C@H](Cc1c[nH]cn1)NC(=O)[C@H](C)NC(=O)[C@H](CC(C)C)NC(=O)[C@H](CCCCN)NC(=O)[C@H](CCC(N)=O)NC(=O)[C@@H](NC(=O)[C@@H](NC(=O)[C@@H]1CSSC[C@H](NC(=O)CNC(=O)[C@H](CCCCN)NC(C)=O)C(=O)N[C@@H](CCCNC(=N)N)C(=O)N[C@@H](Cc2ccccc2)C(=O)NCC(=O)N[C@@H]([C@@H](C)O)C(=O)N1)[C@@H](C)O)C(C)C)C(=O)N[C@@H](Cc1ccc(O)cc1)C(=O)N[C@@H](CCC(N)=O)C(=O)N[C@@H](Cc1ccccc1)C(=O)N[C@H](C(=O)N[C@@H](CC(=O)O)C(=O)N[C@@H](CCCCN)C(=O)N[C@@H](CC(=O)O)C(=O)N[C@@H](CCCCN)C(=O)N[C@@H](CC(=O)O)C(=O)N[C@@H](CC(N)=O)C(=O)N[C@@H](CO)C(=O)N[C@@H](C)C(=O)N1CCC[C@H]1C(=O)N[C@H](C(=O)N[C@@H](CC(=O)O)C(=O)N1CCC[C@H]1C(=O)N[C@@H](CO)C(=O)N[C@@H](CO)C(=O)N1CCC[C@H]1C(=O)N[C@@H](Cc1c[nH]cn1)C(=O)N[C@@H](CO)C(=O)N[C@@H](Cc1ccc(O)cc1)C(N)=O)C(C)C)[C@@H](C)O [SEQ ID NO: 59]
HLEC survival (in words) [2]: minimal effects; also recorded: negligible effects
